Assay results: article PMC10017709, “Structural basis of selective cannabinoid CB2 receptor activation” (Nature Communications, 2023)
“And” between values parts separate entries of the source, which are not always exact repeats. Equal values may be shown once. Read-outs that look alike come from different tables or passages of the source.

Key:
CB2R-L182^ECL2I = CB2R-L182^ECL2I (Homo sapiens, UniProt P34972, L182I); test: [35S]GTPγS assay, CB2R L182I mutant; type: biochemical
hCB2R [1] = target: T1, hCB2R (Homo sapiens, UniProt P34972); test: [3H]RO6957022 displacement assay; type: binding; conditions: individual replicates
T1 construct: host or cells: CHO-K1 (CHOK1_hCB2bgal, PathHunter), membranes
T1 sequence (P34972 whole entry): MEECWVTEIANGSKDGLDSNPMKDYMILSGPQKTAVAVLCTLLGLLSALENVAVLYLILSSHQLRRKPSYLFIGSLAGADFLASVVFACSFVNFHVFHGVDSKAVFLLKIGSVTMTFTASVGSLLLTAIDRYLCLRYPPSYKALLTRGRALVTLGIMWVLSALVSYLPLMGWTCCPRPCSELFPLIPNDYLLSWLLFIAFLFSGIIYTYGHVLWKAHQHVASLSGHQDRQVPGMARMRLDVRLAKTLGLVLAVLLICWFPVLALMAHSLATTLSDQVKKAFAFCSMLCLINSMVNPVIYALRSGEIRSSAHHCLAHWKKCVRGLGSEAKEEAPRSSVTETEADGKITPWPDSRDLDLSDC

CB2R WT = CB2R WT (Homo sapiens, UniProt P34972); test: [35S]GTPγS G protein activation assay, CB2R WT; type: biochemical; conditions: for [35S]GTPγS binding, percentage of WT / [35S]GTPγS binding, percentage of CP55,940: individual replicates
Sequence of CB2R WT (P34972 whole entry): as above

hCB2R [2] = target: T1, hCB2R; test: [3H]RO6957022 competition association assay; type: binding; conditions: for percentage specific [3H]RO6957022 binding (competition association): individual replicates
CB1R QuadrupleTM1,7 = test: [35S]GTPγS assay, CB1R quadruple mutant; type: biochemical, human
CB2R-E181^ECL2D = CB2R-E181^ECL2D (Homo sapiens, UniProt P34972, E181D); test: [35S]GTPγS assay, CB2R E181D mutant; type: biochemical
Sequence of CB2R-E181^ECL2D (P34972 whole entry E181D): as the sequence (P34972 whole entry) above, with E181D counted along it

CB2R-Quadruple^TM1,7 = CB2R-Quadruple^TM1,7 (Homo sapiens, UniProt P34972, C40S/K279T/K33Q/V36I); test: [35S]GTPγS assay, CB2R quadruple mutant; type: biochemical; conditions: for [35S]GTPγS binding, percentage of WT: QuadrupleTM1,7, individual replicates
Sequence of CB2R-Quadruple^TM1,7 (P34972 whole entry K33Q/V36I/C40S/K279T): as the sequence (P34972 whole entry) above, with K33Q, V36I, C40S, K279T counted along it
Description: In short, transient HEK293T membrane homogenates (10 µg/well) were diluted in assay buffer (50 mM Tris-HCl (pH 7.4), 5 mM MgCl2, 150 mM NaCl, 1 mM EDTA, 0.05% BSA (w/v) and 1 mM DTT, freshly prepared every day) and were pretreated with 10 µg saponin and 1 µM GDP. For endocannabinoid samples, the membranes were additionally pretreated for 30 min with 50 µM PMSF before agonist addition. […] Basal receptor activity was determined in the presence of vehicle only (0.2% DMSO/acetonitrile). […] Filtration was performed, and filter-bound radioactivity was determined as described under [^3H]RO6957022 Competition Association Assays except for using ice-cold 50 mM Tris-HCl (pH 7.4), 5 mM MgCl2 buffer.

CB2R-L185^ECL2H = CB2R-L185^ECL2H (Homo sapiens, UniProt P34972, L185H); test: [35S]GTPγS assay, CB2R L185H mutant; type: biochemical
Sequence of CB2R-L185^ECL2H (P34972 whole entry L185H): as the sequence (P34972 whole entry) above, with L185H counted along it

[3] = tested on: cisplatin-induced nephropathy, CB2R knockout mice (CB2R−/−); test: Cisplatin-induced nephropathy in CB2R knockout mice; type: in vivo; conditions: Cisplatin KO; mean, n = 6
Description: (§1) Ten to twelve-week-old male/female C57BL/6J mice were obtained from The Jackson Laboratory (Bar Harbor, ME, USA). CB2R knockout mice (CB2R^−/−) and their wild-type littermates (CB2R^+/+) were developed as described previously and had been backcrossed to a C57BL/6J background. All animals were kept in a temperature-controlled environment (20–22 °C) with a 12 h light–dark cycle and were always allowed free access to food and water. All animal experiments reported in this manuscript complied with the National Institutes of Health “Guide for the Care and Use of Laboratory Animals” (NIH publication 86–23 revised 1985) and were approved by the Institutional Animal Care and Use Committee of the National Institute on Alcohol Abuse and Alcoholism (Bethesda, MD).
(§2) The well-established model of cisplatin-induced nephropathy was used[63]. Mice (CB2R^−/− and CB2R^+/+) were sacrificed 72 h after a single injection of cisplatin (cis-diamine platinum (II) dichloride (Sigma#P4394) 25 mg/kg i.p.; freshly dissolved in physiological saline) by cervical dislocation under deep anesthesia with 5% isoflurane, for collection of blood and tissue samples. LEI-102 was given i.p. or by oral gavage (p.o.) at 0.3, 3.0, and 10 mg/kg every day, starting 1.5 h before the cisplatin exposure. The drug was dissolved in a vehicle of DMSO:Tween 80:saline, 1:1:18. After administration of LEI‐102, mice were killed by cervical dislocation under deep anesthesia with 5% isoflurane, for collection of blood and tissue samples at the time described in the figure. The tetrad assay in mice has previously been described in detail.
(§3) Markers of kidney dysfunction (BUN and CREA), histopathology (PAS staining), immunostaining or ELISA for 3-nitrotyrosine (3-NT; Cell Biolabs #STA-305) and 4-hydroxynonenal (4-HNE; Cell Biolabs#STA-838), and real-time PCR (Primers from Qiagen, SYBER Green Vita Scientific#MEIF01301, High-Capacity cDNA Reverse Transcription Kit, Thermo Fisher Scientific#4368813) for inflammatory cytokines were performed as previously described. Tubular damage scores were determined based on the percentage of tubules showing epithelial necrosis where 0= normal; 1, <10%; 2, 10–25%; 3, 26–75%; 4, >75%. Tubular necrosis was defined as the loss of the proximal tubular brush border, blebbing of apical membranes, tubular epithelial cell detachment from the basement membrane, or intraluminal aggregation of cells and proteins. The morphometric examination was performed in a blinded manner. Ten fields were scored from each mouse kidneys at 200× magnification, and average scores were determined for each mouse. For final quantification graph, average tubular damage scores of six mice/group were plotted.

[4] = tested on: cisplatin-induced nephropathy; test: Cisplatin-induced nephropathy in wild type mice; type: in vivo, C57BL/6J mice
Description: as §1, §2, §3

CB2R-I110^3.29A = CB2R-I110^3.29A (Homo sapiens, UniProt P34972, I110A); test: [35S]GTPγS assay, CB2R I110A mutant; type: biochemical
Sequence of CB2R-I110^3.29A (P34972 whole entry I110A): as the sequence (P34972 whole entry) above, with I110A counted along it

CB2R-H95^2.65A = CB2R-H95^2.65A (Homo sapiens, UniProt P34972, H95A); test: [35S]GTPγS assay, CB2R H95A mutant; type: biochemical
Sequence of CB2R-H95^2.65A (P34972 whole entry H95A): as the sequence (P34972 whole entry) above, with H95A counted along it

CB1R-H270^ECL2L = CB1R-H270^ECL2L (Homo sapiens, UniProt P21554, H270L); test: [35S]GTPγS assay, CB1R H270L mutant; type: biochemical
Sequence of CB1R-H270^ECL2L (P21554 whole entry H270L): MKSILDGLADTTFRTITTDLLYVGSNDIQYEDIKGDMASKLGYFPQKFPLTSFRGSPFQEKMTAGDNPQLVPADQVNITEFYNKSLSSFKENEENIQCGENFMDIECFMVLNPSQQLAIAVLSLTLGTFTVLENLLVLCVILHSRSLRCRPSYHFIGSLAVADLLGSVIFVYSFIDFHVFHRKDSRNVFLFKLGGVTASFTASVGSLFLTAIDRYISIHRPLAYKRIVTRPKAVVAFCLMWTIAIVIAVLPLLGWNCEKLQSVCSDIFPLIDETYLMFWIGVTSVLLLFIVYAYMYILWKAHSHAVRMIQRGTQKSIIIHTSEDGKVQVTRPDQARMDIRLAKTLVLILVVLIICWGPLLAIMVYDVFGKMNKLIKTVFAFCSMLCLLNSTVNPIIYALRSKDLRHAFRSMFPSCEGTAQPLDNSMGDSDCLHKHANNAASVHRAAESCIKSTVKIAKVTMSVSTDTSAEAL

CB1R I267ECL2L = CB1R I267ECL2L (Homo sapiens, UniProt P21554, I267L); test: [35S]GTPγS assay, CB1R I267L mutant; type: biochemical
Sequence of CB1R I267ECL2L (P21554 whole entry I267L): as the sequence (P21554 whole entry H270L) above, with I267L, L270H counted along it

CB1R D266ECL2E = target: T2, CB1R D266ECL2E (Homo sapiens, UniProt P21554, D266E); test: [35S]GTPγS assay, CB1R D266E mutant; type: biochemical
T2 construct: The WT CB1R and CB2R genes were subcloned into vector pcDNA3.1; HA signal peptide (N); expressed in transfected cells; host or cells: HEK293T (transient, membrane homogenates)
T2 sequence (P21554 whole entry D266E): as the sequence (P21554 whole entry H270L) above, with D266E, L270H counted along it

CB2R-S285^7.39A = CB2R-S285^7.39A (Homo sapiens, UniProt P34972, S285A); test: [35S]GTPγS assay, CB2R S285A mutant; type: biochemical
Sequence of CB2R-S285^7.39A (P34972 whole entry S285A): as the sequence (P34972 whole entry) above, with S285A counted along it

hCB1R WT = hCB1R WT (Homo sapiens, UniProt P21554); test: [35S]GTPγS G protein activation assay, CB1R WT; type: biochemical
Sequence of hCB1R WT (P21554 whole entry): as the sequence (P21554 whole entry H270L) above, with L270H counted along it

CB2R-V261^6.51L = CB2R-V261^6.51L (Homo sapiens, UniProt P34972, V261L); test: [35S]GTPγS assay, CB2R V261L mutant; type: biochemical
Sequence of CB2R-V261^6.51L (P34972 whole entry V261L): as the sequence (P34972 whole entry) above, with V261L counted along it

CB2R-F117^3.36A = CB2R-F117^3.36A (Homo sapiens, UniProt P34972, F117A); test: [35S]GTPγS assay, CB2R F117A mutant; type: biochemical
Sequence of CB2R-F117^3.36A (P34972 whole entry F117A): as the sequence (P34972 whole entry) above, with F117A counted along it

CB2R-I110^3.29L = CB2R-I110^3.29L (Homo sapiens, UniProt P34972, I110L); test: [35S]GTPγS assay, CB2R I110L mutant; type: biochemical
Sequence of CB2R-I110^3.29L (P34972 whole entry I110L): as the sequence (P34972 whole entry) above, with I110L counted along it

[5] = Cisplatin WT (Fig5F), mean, n = 6
[6] = cisplatin 25 mg/kg i.p. alone, 72 h, mean, n = 6 (Fig5A)
[7] = kidney, cisplatin alone, mean, n = 6, vehicle mean 1.0
[8] = kidney, cisplatin alone, mean, n = 6, vehicle mean 1.00

Sequence of CB2R-L182^ECL2I (P34972 whole entry L182I): as the sequence (P34972 whole entry) above, with L182I counted along it

CCCCC/C=C\C/C=C\C/C=C\C/C=C\CCCC(=O)NCCO [AEA, anandamide]
Emax (CB2R-L182^ECL2I; L182I mutant, at 10 µM compared to WT, read-out: Emax (%)): 5 ± 17% | percentage specific [3H]RO6957022 binding (displacement) (hCB2R [1]; log [agonist] (M) -5): 3.79% and 18.06% and 16.04% | percentage specific [3H]RO6957022 binding (displacement) (hCB2R [1]; log [agonist] (M) -6): 47.48% and 65.38% and 68.38% | percentage specific [3H]RO6957022 binding (displacement) (hCB2R [1]; log [agonist] (M) -7): 87.86% and 102.56% and 105.31% | percentage specific [3H]RO6957022 binding (displacement) (hCB2R [1]; log [agonist] (M) -8): 101.15% and 95.97% and 108.64% | Emax (CB2R WT; CB2R WT, maximum effect at 10 µM compared to WT (Suppl. Table 6), read-out: Emax (%)): 106 ± 7% | Emax (CB2R WT; CB2R WT, maximum effect compared to CP55,940, read-out: Emax (%)): 60 ± 5% | [35S]GTPγS binding, percentage of WT (CB2R WT; log [ligand] (M) -5): 119.90 percentage of WT and 99.77 percentage of WT and 99.12 percentage of WT | [35S]GTPγS binding, percentage of WT (CB2R WT; log [ligand] (M) -6): 73.32 percentage of WT and 72.65 percentage of WT and 56.56 percentage of WT | [35S]GTPγS binding, percentage of WT (CB2R WT; log [ligand] (M) -7): 21.64 percentage of WT and 23.33 percentage of WT and 32.57 percentage of WT | [35S]GTPγS binding, percentage of WT (CB2R WT; log [ligand] (M) -8): 2.55 percentage of WT and 4.67 percentage of WT and 26.67 percentage of WT | [35S]GTPγS binding, percentage of CP55,940 (CB2R WT; log [agonist] (M) -5): 55.30% and 54.57% and 71.23% | [35S]GTPγS binding, percentage of CP55,940 (CB2R WT; log [agonist] (M) -6): 33.82% and 39.74% and 40.65% | [35S]GTPγS binding, percentage of CP55,940 (CB2R WT; log [agonist] (M) -7): 9.98% and 12.76% and 23.41% | [35S]GTPγS binding, percentage of CP55,940 (CB2R WT; log [agonist] (M) -8): 1.18% and 2.55% and 19.17% | percentage specific [3H]RO6957022 binding (competition association) (hCB2R [2]; Time 1 min): 4.42% and 11.28% and 5.44% | percentage specific [3H]RO6957022 binding (competition association) (hCB2R [2]; Time 3 min): 16.17% and 23.05% and 21.34% | percentage specific [3H]RO6957022 binding (competition association) (hCB2R [2]; Time 5 min): 26.28% and 26.79% and 25.51% | percentage specific [3H]RO6957022 binding (competition association) (hCB2R [2]; Time 7 min): 34.14% and 35.42% and 31.98% | percentage specific [3H]RO6957022 binding (competition association) (hCB2R [2]; Time 10 min): 34.18% and 41.87% and 46.59% | percentage specific [3H]RO6957022 binding (competition association) (hCB2R [2]; Time 20 min): 41.44% and 51.99% and 48.92% | percentage specific [3H]RO6957022 binding (competition association) (hCB2R [2]; Time 30 min): 50.41% and 53.24% and 59.83% | percentage specific [3H]RO6957022 binding (competition association) (hCB2R [2]; Time 45 min): 45.80% and 66.77% and 61.94% | percentage specific [3H]RO6957022 binding (competition association) (hCB2R [2]; Time 60 min): 54.67% and 64.58% and 70.00% | percentage specific [3H]RO6957022 binding (competition association) (hCB2R [2]; Time 90 min): 60.96% and 62.48% and 62.68% | percentage specific [3H]RO6957022 binding (competition association) (hCB2R [2]; Time 120 min): 62.19% and 63.42% and 54.77% | ET (engagement time) (hCB2R [2]; at 1 µM agonist, ET = 1/(kon ∙ 1 × 10-6)): 152 s and 152 ± 10.4 s | Agonist-mediated activation (CB1R QuadrupleTM1,7): 1.6 ± 0.1 fold over its basal | Emax (CB2R-E181^ECL2D; E181D mutant, at 10 µM compared to WT, read-out: Emax (%)): 14 ± 5% | Emax (CB2R-Quadruple^TM1,7; Quadruple TM1,7 mutant, at 10 µM compared to WT, read-out: Emax (%)): 24 ± 7% | [35S]GTPγS binding, percentage of WT (CB2R-Quadruple^TM1,7; log [ligand] (M) -5): 32.30 percentage of WT and 9.42 percentage of WT and 29.02 percentage of WT | [35S]GTPγS binding, percentage of WT (CB2R-Quadruple^TM1,7; log [ligand] (M) -6): -7.36 percentage of WT and -10.83 percentage of WT and 27.74 percentage of WT | [35S]GTPγS binding, percentage of WT (CB2R-Quadruple^TM1,7; log [ligand] (M) -7): -34.86 percentage of WT and -19.55 percentage of WT and 15.75 percentage of WT | [35S]GTPγS binding, percentage of WT (CB2R-Quadruple^TM1,7; log [ligand] (M) -8): 9.32 percentage of WT and -29.85 percentage of WT and 11.86 percentage of WT | Emax (CB2R-L185^ECL2H; L185H mutant, at 10 µM compared to WT, read-out: Emax (%)): 210 ± 61%

N.N.[Cl][Pt][Cl] [Cisplatin, cis-diamine platinum (II) dichloride]
BUN [3]: 290 | CREA [3]: 3.7 | Tubular damage score [3]: 2.86 | BUN [4, 5]: 170 | CREA [4, 5]: 1.7 | Tubular damage score [4, 5]: 2.16 | BUN [4, 6]: 167.5 mg/dL | CREA [4, 6]: 1.8 mg/dL | serum creatinine and blood urea nitrogen levels ([4]; cisplatin 25 mg/kg i.p., 72 h, wild type mice vs vehicle): marked elevations | Tubular damage score ([4]; cisplatin alone, PAS staining, score 0-4, mean, n = 6 (Fig5B)): 2.4 | HNE (HNE adducts, ELISA) [4, 7]: 4.3 | NT (protein nitration, ELISA) [4, 7]: 5.7 | IL1b expression (real-time PCR) [4, 8]: 4.93 | TNFa expression (real-time PCR) [4, 8]: 3.36

CCCCCCC(C)(C)c1ccc([C@@H]2C[C@H](O)CC[C@H]2CCCO)c(O)c1 [CP55,940]
Emax (CB2R-I110^3.29A): 30 ± 2% | Emax (CB2R-H95^2.65A): 68 ± 11% | drop in potency compared to WT (CB2R-H95^2.65A): 40 fold | Emax (CB2R-L182^ECL2I): 19 ± 2% | Agonist-mediated activation (CB1R-H270^ECL2L): 1.6 ± 0.1 fold over its basal | Agonist-mediated activation (CB1R I267ECL2L): 1.0 ± 0.0 fold over its basal | Emax (CB2R WT): 98 ± 4% | Emax (%) (CB2R WT): 99 ± 3% | Agonist-mediated activation (CB1R QuadrupleTM1,7): 1.8 ± 0.1 fold over its basal | Agonist-mediated activation (CB1R D266ECL2E): 1.4 ± 0.1 fold over its basal | Emax (CB2R-E181^ECL2D): 19 ± 10% | Emax (CB2R-S285^7.39A): 25 ± 5% | Emax (CB2R-Quadruple^TM1,7): 18 ± 14% | Agonist-mediated activation (hCB1R WT): 1.2 ± 0.1 fold over its basal | Emax (CB2R-V261^6.51L): 12 ± 7% | Emax (CB2R-L185^ECL2H): 142 ± 16% | Emax (CB2R-F117^3.36A): -1 ± 14% | Emax (CB2R-I110^3.29L): 96 ± 3%
